According to patent US8557864B2, “Agent having neurotrophic factor-like activity” (Nagoya Industrial Science Research Institute, priority 2007, dated 2013):

Key:
Assay type in all cases: in vivo
MAP kinase = assay: Phosphorylated MAP kinase amount in cortex of frontal lobe and hippocampus of stressed mice; conditions: 24 hours after 3 weeks of stress with 20, 100, 500 μg/kg, at least one administration example
Method: After 24 hours from completion of stress for 3 weeks in the same method as described in Example 2, mice administered with the compound 8 in doses of 0, 20, 100 and 500 μg/kg respectively at the same time as stress and non-stressed mice administered with only a phosphoric acid buffer containing 0.1% DMSO were sacrificed and the cortexes of frontal lobes and hippocampi were excised respectively, and thereto were added RIPA buffers in 19 times of an amount of each wet weight.
Then, sonication was performed by an ultrasonic grinder until tissues cannot be seen, centrifuged at 12000 rpm for 15 minutes, and the supernatant was recovered to form a tissue protein extraction solution. The protein concentration of the extraction solution was measured using a BCA Protein Assay Kit (TAKARA BIO INC.), each of extraction solutions containing 3 μg for a MAP kinase and 5 μg for a phosphorylated MAP kinase was added with a ⅓ amount of a sample buffer for electrophoresis at 4 times of a concentration, and a 1/10 amount of 2-mercaptoethanol and thermally treated at 95° C. for 5 minutes and subjected to electrophoresis with a 10% SDS polyacrylic amide gel. […]

mice = assay: Novel object recognition test on mice; conditions: 100 and 500 μg/kg intraperitoneally, healthy mice, test started after 2 hours
Method: A promotion activity of brain functions due to the compound 8 was examined using a novel object recognition test. The novel object recognition test is a method of evaluating memory and learning abilities from behaviors after showing a “familiar object” and a “novel object” to mice, utilizing the fact that the mice take exploration behaviors (behaviors such as coming closer to or smelling an object) when they find the “novel object”.
The compound 8 was dissolved in 0.1% DMSO to adjust a concentration so as to have each dose of 100 and 500 μg/kg and intraperitoneally injected to 6 mice in every administration example each in a dose of 0.25 mL. In a 0 μg/kg weight administration example of a control, 0.25 mL of a phosphoric acid buffer containing 0.1% DMSO was intraperitoneally injected. The compound 8 was administered to mice and the novel object recognition test was performed after 2 hours. That is, a mouse was put in a place where two identical objects were present for 15 minutes to let the mouse memorize the two objects (these two objects will be “familiar objects”). After the elapse of 1 day, an exploration behavior test in which the mouse was put in a place where the “familiar objects and “novel objects” were present was carried out for 10 minutes FIG. 33 show the results. Significance tests were performed in a Student's t-test (*) and a Turkey's test (##). […]

[1] = system: mice under chronic mild stress; assay: Burying the glass-marbles test, compound given at the same time as stress; conditions: 20, 100 and 500 μg/kg intraperitoneally once per day with stress; stressed 3 week- and 1 week-administration groups
Method: Mice under established chronic mild stress (hereinafter referred to as “stress”) were used for a depression and anxiety disorder-like model animal. Stress was applied as follows. 7-week-old male ddY strain mice fed in one cage for 4 mice were used and first subjected to forced swimming for 15 minutes. Then, the mice were fed in a sloped cage for 2 days, and then rested in a normal cage for 1 day. Then, the mice were fed in a dirt cage moisturized with 200 mL of water for 1 day and then rested in a normal cage for 1 day. Then, the mice were fed in a rotational cage that rotated at 180 rpm for 1 day, and then rested in a normal cage for 1 day. […] For 0 μg/kg administration examples of controls, a phosphoric acid buffer containing 0.1% DMSO (controls were expressed as “PBS” or “0 μg/kg” in the figure shown below) was administered in an amount of 0.25 mL to each of a stressed example and a non-stressed example. […]
Tips were bedded so as to have a height of 5 cm in a box with […] and 25 glass marbles (1.6 cm in diameter) were placed thereon at 5 cm-interval and behaviors of mice were observed. […] Since a mouse under stress having an anxiety symptom (condition) takes such a behavior as burying glass marbles, a level of the anxiety symptom can be evaluated from the number of buried glass marbles.

## CCCCCCC/C=C/C(=O)OCC [Compound 8, trans-2-decenoic acid ethyl ester]
MAP kinase
  phosphorylated MAP kinase amount compared to control (0 μg/kg): significantly increased
mice
  recognition index of novel objects: became high
[1]
  number of buried glass marbles, stressed vs non-stressed example: no significant difference
